Converted amounts (≈) assume the structure as drawn. Read-outs that look alike come from different tables or passages of the source. Bridge positions count the residues as written; N and C are the ends. Square brackets hold non-standard residues; d marks the D form. Peptide text beside a SMILES is read from it. * marks the point of attachment. Decanoyl = CCCCCCCCCC(=O)*; Nonanoyl = CCCCCCCCC(=O)*; Dab = NCC[C@H](N)C(=O)O
Key:
P. aeruginosa ATTC 9027 = format: cell-based, Pseudomonas aeruginosa; settings: for MIC P. a.: Supplementary Table S1, P. aeruginosa; for MIC P. aeruginosa: ATTC 9027
Protocol: (§1) MICs were measured after 18–20 h of incubation in sterile 96-well plates (Corning Costar 3598 microtiter plates) in Mueller Hinton Broth (MHB) culture medium, (Difco, USA), according to well known in vitro protocols. Bacterial strains in Table 1 were: P. aeruginosa ATTC 9027, E. coli ATTC 8739, S. aureus ATTC 6538, and E. faecalis ATTC 29212. MICs shown in table 4 were performed by Mary Conrad at Cubist Pharmaceuticals (Lexington, MA) in non-binding surface plates.

E. coli ATTC 8739 = format: cell-based, Escherichia coli; settings: for MIC E. c.: Supplementary Table S1, E. coli; for MIC E. coli: ATTC 8739
Protocol: as §1

S. aureus ATTC 6538 = assay: microbe, parasite or virus in culture; format: cell-based, Staphylococcus aureus; settings: for MIC S. a.: Supplementary Table S1, S. aureus; for MIC S. aureus: ATTC 6538
Protocol: as §1

Molecule | MIC E. c. (E. coli ATTC 8739) [µg/mL] | MIC S. a. (S. aureus ATTC 6538) [µg/mL] | MIC P. a. (P. aeruginosa ATTC 9027) [µg/mL] | other results
C9-Arg-Thr-Dab-Cys-Dab-Phe-Leu-Arg-Dab-Cys [Analog 17] | – | – | – | MIC P. a. (P. aeruginosa ATTC 9027; listed as 17): 16 µg/mL
C9-Arg-Thr-Dab-Cys-Arg-Phe-Leu-Arg-Dab-Cys [Analog 9] | 16 | 16 | 128 | –
C9-Arg-Thr-Arg-Cys-Arg-Phe-Leu-Arg-Dab-Cys (RTRCRFLR; not fully specified; C9 acyl; Dab-Cys C-terminal; printed: Arg-Thr-Arg-Cys-Arg-Phe-Leu-Arg-) [Analog 11] | 16 | 16 | 128 | –
CCCCCCCCC(=O)N[C@@H](CCCNC(=N)N)C(=O)N[C@H](C(=O)N[C@@H](CCCNC(=N)N)C(=O)N[C@H]1CSSC[C@@H](C(N)=O)NC(=O)[C@H](CCCNC(=N)N)NC(=O)[C@H](CCCNC(=N)N)NC(=O)[C@H](CC(C)C)NC(=O)[C@@H](Cc2ccccc2)NC(=O)[C@H](CCN)NC1=O)[C@@H](C)O [Analog 10, nonanoyl-Arg-Thr-Arg-Cys-Dab-Phe-Leu-Arg-Arg-Cys] (Nonanoyl-RTRC[Dab][dF]LRRC-NH2; disulfide 4-10) | – | – | – | MIC E. coli (E. coli ATTC 8739): 32 µg/mL (≈ 22.1 µM); MIC S. aureus (S. aureus ATTC 6538): 32 µg/mL (≈ 22.1 µM); MIC P. aeruginosa (P. aeruginosa ATTC 9027): 16 µg/mL (≈ 11.1 µM)
C9-Lys-Thr-Dab-Cys-Dab-Phe-Leu-Lys-Dab-Cys [Analog 33] | 16 | 128 | 32 | –
C9-Arg-Thr-Dab-Cys-Dab-Phe-Gly-Arg-Dab-Cys [Analog 26] | 64 | 128 | > 128 | –
C9-Arg-Thr-Dab-Cys-Dab-Leu-Leu-Arg-Dab-Cys [Analog 29] | 32 | 32 | 16 | –
C9-Arg-Thr-Dab-Cys-Dab-Phe-Met-Arg-Dab-Cys [Analog 21] | – | > 32 | 8 | –
C9-Arg-Thr-Arg-Cys-Dab-Phe-Leu-Dab-Dab-Cys [Analog 7] | 32 | 32 | 32 | –
C9-Dap[(C=NH)NH2]-Thr-Dab-Cys-Dab-Phe-Leu-Dap[(C=NH)NH2]-Dab-Cys [Analog 14] | 2 | 16 | 16 | –
CCCCCCCCC(=O)N[C@@H](CCN)C(=O)N[C@H](C(=O)N[C@@H](CCN)C(=O)N[C@H]1CSSC[C@@H](C(N)=O)NC(=O)[C@H](CCN)NC(=O)[C@H](CCN)NC(=O)[C@H](CC(C)C)NC(=O)[C@@H](Cc2ccccc2)NC(=O)[C@H](CCN)NC1=O)[C@@H](C)O [Analog 1, nonanoyl-Dab-Thr-Dab-Cys-Dab-Phe-Leu-Dab-Dab-Cys] (Nonanoyl-[Dab]T[Dab]C[Dab][dF]L[Dab][Dab]C-NH2; disulfide 4-10) | – | – | – | MIC E. coli (E. coli ATTC 8739): 4 µg/mL (≈ 3.27 µM); MIC P. aeruginosa (P. aeruginosa ATTC 9027): 8 µg/mL (≈ 6.54 µM)
C9-Arg-Thr-Dab-Cys-Dab-Trp-Leu-Arg-Dab-Cys [Analog 28] | 4 | 8 | 8 | –
C9-Dab[(C=NH)NH2]-Thr-Dab-Cys-Dab-Phe-Leu-Dab[(C=NH)NH2]-Dab-Cys [Analog 15] | 4 | > 32 | 8 | –
C9-Arg-Thr-Lys-Cys-Dab-Phe-Leu-Arg-Lys-Cys [Analog 32] | 8 | 32 | 16 | –
CCCCCCCCCC(=O)N[C@@H](CCN)C(=O)N[C@H](C(=O)N[C@@H](CCN)C(=O)N[C@H]1CSSC[C@H](C(N)=O)NC(=O)[C@H](CCN)NC(=O)[C@H](CCN)NC(=O)[C@H](CC(C)C)NC(=O)[C@@H](Cc2ccccc2)NC(=O)[C@H](CCN)NC1=O)[C@@H](C)O [Analog 37, decanoyl -Dab-Thr-Dab-Cys-Dab-Phe-Leu-Dab-Dab-Cys] (Decanoyl-[Dab]T[Dab]C[Dab][dF]L[Dab][Dab][dC]-NH2; disulfide 4-10) | – | – | – | MIC E. coli (E. coli ATTC 8739): 2 µg/mL (≈ 1.62 µM); MIC S. aureus (S. aureus ATTC 6538): 8 µg/mL (≈ 6.46 µM); MIC P. aeruginosa (P. aeruginosa ATTC 9027): 4 µg/mL (≈ 3.23 µM)
C9-Arg-Thr-Dab-Cys-Dab-Leu-Thr-Arg-Dab-Cys [Analog 30] | 32 | > 128 | 32 | –
C9-Arg-Thr-Dab-Ser-Dab-Phe-Leu-Arg-Dab-Ser [Analog 18] | 32 | 64 | 64 | –
CCCCCCCCC(=O)N[C@@H](CCCNC(=N)N)C(=O)N[C@H](C(=O)N[C@@H](CCN)C(=O)N[C@H]1CSSC[C@H](C(N)=O)NC(=O)[C@H](CCN)NC(=O)[C@H](CCCNC(=N)N)NC(=O)[C@H](CC(C)C)NC(=O)[C@@H](Cc2ccccc2)NC(=O)[C@H](CCN)NC1=O)[C@@H](C)O [Analog 13, nonanoyl-Arg-Thr-Dab-Cys-Dab-Phe-Leu-Arg-Dab-Cys] (Nonanoyl-RT[Dab]C[Dab][dF]LR[Dab][dC]-NH2; disulfide 4-10) | – | – | – | MIC E. coli (E. coli ATTC 8739): 4 µg/mL (≈ 2.99 µM); MIC S. aureus (S. aureus ATTC 6538): 16 µg/mL (≈ 12 µM); MIC P. aeruginosa (P. aeruginosa ATTC 9027): 8 µg/mL (≈ 5.99 µM)
CCCCCCCCC(=O)N[C@@H](CCN)C(=O)N[C@H](C(=O)N[C@@H](CCCNC(=N)N)C(=O)N[C@H]1CSSC[C@@H](C(N)=O)NC(=O)[C@H](CCN)NC(=O)[C@H](CCCNC(=N)N)NC(=O)[C@H](CC(C)C)NC(=O)[C@@H](Cc2ccccc2)NC(=O)[C@H](CCN)NC1=O)[C@@H](C)O [Analog 6, nonanoyl-Dab-Thr-Arg-Cys-Dab-Phe-Leu-Arg-Dab-Cys] (Nonanoyl-[Dab]TRC[Dab][dF]LR[Dab]C-NH2; disulfide 4-10) | – | – | – | MIC E. coli (E. coli ATTC 8739): 8 µg/mL (≈ 5.99 µM); MIC P. aeruginosa (P. aeruginosa ATTC 9027): 8 µg/mL (≈ 5.99 µM)
CCCCCCCCCC(=O)N[C@@H](CCCNC(=N)N)C(=O)N[C@H](C(=O)N[C@@H](CCN)C(=O)N[C@H]1CSSC[C@@H](C(N)=O)NC(=O)[C@H](CCN)NC(=O)[C@H](CCCNC(=N)N)NC(=O)[C@H](CC(C)C)NC(=O)[C@@H](Cc2ccccc2)NC(=O)[C@H](CCN)NC1=O)[C@@H](C)O [Analog 36, decanoyl-Arg-Thr-Dab-Cys-Dab-Phe-Leu-Arg-Dab-Cys] (Decanoyl-RT[Dab]C[Dab][dF]LR[Dab]C-NH2; disulfide 4-10) | – | – | – | MIC E. coli (E. coli ATTC 8739): 8 µg/mL (≈ 5.93 µM); MIC S. aureus (S. aureus ATTC 6538): 16 µg/mL (≈ 11.9 µM); MIC P. aeruginosa (P. aeruginosa ATTC 9027): 8 µg/mL (≈ 5.93 µM)
C9-Arg-Thr-His-Cys-Dab-Phe-Leu-Arg-His-Cys [Analog 31] | 32 | 128 | 32 | –
C9-Dab-Thr-Dab-Cys-Dab-Phe-Met(O)-Dab-Dab-Cys [Analog 20] | > 32 | > 32 | – | –
CCCCCCCCC(=O)N[C@@H](CCCNC(=N)N)C(=O)N[C@H](C(=O)N[C@@H](CCN)C(=O)N[C@H]1CSSC[C@@H](C(N)=O)NC(=O)[C@H](CCN)NC(=O)[C@H](CCN)NC(=O)[C@H](CC(C)C)NC(=O)[C@@H](Cc2ccccc2)NC(=O)[C@H](CCN)NC1=O)[C@@H](C)O [Analog 2, nonanoyl-Arg-Thr-Dab-Cys-Dab-Phe-Leu-Dab-Dab-Cys] (Nonanoyl-RT[Dab]C[Dab][dF]L[Dab][Dab]C-NH2; disulfide 4-10) | – | – | – | MIC E. coli (E. coli ATTC 8739): 8 µg/mL (≈ 6.25 µM); MIC S. aureus (S. aureus ATTC 6538): >32 µg/mL; MIC P. aeruginosa (P. aeruginosa ATTC 9027): 8 µg/mL (≈ 6.25 µM)
C9-Arg-Thr-Dab-Cys-Dab-Gly-Leu-Arg-Dab-Cys [Analog 25] | > 128 | > 128 | > 128 | –
CCCCCCCCC(=O)N[C@@H](CCN)C(=O)N[C@H](C(=O)N[C@@H](CCCNC(=N)N)C(=O)N[C@H]1CSSC[C@@H](C(N)=O)NC(=O)[C@H](CCN)NC(=O)[C@H](CCN)NC(=O)[C@H](CC(C)C)NC(=O)[C@@H](Cc2ccccc2)NC(=O)[C@H](CCN)NC1=O)[C@@H](C)O [Analog 3, nonanoyl-Dab-Thr-Arg-Cys-Dab-Phe-Leu-Dab-Dab-Cys] (Nonanoyl-[Dab]TRC[Dab][dF]L[Dab][Dab]C-NH2; disulfide 4-10) | – | – | – | MIC E. coli (E. coli ATTC 8739): 8 µg/mL (≈ 6.25 µM); MIC S. aureus (S. aureus ATTC 6538): >32 µg/mL; MIC P. aeruginosa (P. aeruginosa ATTC 9027): 4 µg/mL (≈ 3.13 µM)
C9-Arg-Thr-Dab-Cys-Dab-Phe-Thr-Arg-Dab-Cys [Analog 27] | 16 | 64 | 8 | –
CCCCCCCCC(=O)N[C@@H](CCN)C(=O)N[C@H](C(=O)N[C@@H](CCN)C(=O)N[C@H]1CSSC[C@@H](C(N)=O)NC(=O)[C@H](CCN)NC(=O)[C@H](CCCNC(=N)N)NC(=O)[C@H](CC(C)C)NC(=O)[C@@H](Cc2ccccc2)NC(=O)[C@H](CCN)NC1=O)[C@@H](C)O [Analog 4, nonanoyl-Dab-Thr-Dab-Cys-Dab-Phe-Leu-Arg-Dab-Cys] (Nonanoyl-[Dab]T[Dab]C[Dab][dF]LR[Dab]C-NH2; disulfide 4-10) | – | – | – | MIC E. coli (E. coli ATTC 8739): 8 µg/mL (≈ 6.25 µM); MIC S. aureus (S. aureus ATTC 6538): >32 µg/mL; MIC P. aeruginosa (P. aeruginosa ATTC 9027): 2 to 4 µg/mL

Now from value to molecule, other results behind:

MIC E. c. (E. coli ATTC 8739) [µg/mL] | MIC S. a. (S. aureus ATTC 6538) [µg/mL] | MIC P. a. (P. aeruginosa ATTC 9027) [µg/mL] | Molecule | other results
4 | 32 | 16 | C9-Dab-Thr-Dab-Cys-Dab-Phe-Met-Dab-Dab-Cys [Analog 19] | –
> 128 | > 128 | > 128 | C9-Arg-Thr-Dab-Cys-Dab-Gly-Gly-Arg-Dab-Cys [Analog 24] | –
8 | 32 | 16 | C9-Arg-Thr-Orn-Cys-Dab-Phe-Leu-Arg-Orn-Cys [Analog 34] | –
– | > 32 | – | C9-Arg(NO2)-Thr-Dab-Cys-Dab-Phe-Leu-Arg(NO2)-Dab-Cys [Analog 16] | –
64 | 32 | – | C9-Arg-Thr-Dab-Cys-Dab-Phe-Leu-Arg-Dab-Cys [Analog 23] | MIC P. a. (P. aeruginosa ATTC 9027; listed as 23): 128 µg/mL
16 | 32 | 16 | C9-Arg-Thr-Arg-Cys-Dab-Phe-Met-Arg-Dab-Cys [Analog 22] | –
16 | 64 | 16 | C9-Orn-Thr-Dab-Cys-Dab-Phe-Leu-Orn-Dab-Cys [Analog 35] | –
